In ChEMBL document CHEMBL5291721, “A preclinical secondary pharmacology resource illuminates target-adverse drug reaction associations of marketed drugs” (Nat Commun, 2023):

Key:
[1] = target: Vascular endothelial growth factor receptor 2 (Homo sapiens, UniProt P35968); assay type: functional
[2] = target: T1, Androgen receptor (Homo sapiens, UniProt P10275)
T1 sequence (P10275 whole entry): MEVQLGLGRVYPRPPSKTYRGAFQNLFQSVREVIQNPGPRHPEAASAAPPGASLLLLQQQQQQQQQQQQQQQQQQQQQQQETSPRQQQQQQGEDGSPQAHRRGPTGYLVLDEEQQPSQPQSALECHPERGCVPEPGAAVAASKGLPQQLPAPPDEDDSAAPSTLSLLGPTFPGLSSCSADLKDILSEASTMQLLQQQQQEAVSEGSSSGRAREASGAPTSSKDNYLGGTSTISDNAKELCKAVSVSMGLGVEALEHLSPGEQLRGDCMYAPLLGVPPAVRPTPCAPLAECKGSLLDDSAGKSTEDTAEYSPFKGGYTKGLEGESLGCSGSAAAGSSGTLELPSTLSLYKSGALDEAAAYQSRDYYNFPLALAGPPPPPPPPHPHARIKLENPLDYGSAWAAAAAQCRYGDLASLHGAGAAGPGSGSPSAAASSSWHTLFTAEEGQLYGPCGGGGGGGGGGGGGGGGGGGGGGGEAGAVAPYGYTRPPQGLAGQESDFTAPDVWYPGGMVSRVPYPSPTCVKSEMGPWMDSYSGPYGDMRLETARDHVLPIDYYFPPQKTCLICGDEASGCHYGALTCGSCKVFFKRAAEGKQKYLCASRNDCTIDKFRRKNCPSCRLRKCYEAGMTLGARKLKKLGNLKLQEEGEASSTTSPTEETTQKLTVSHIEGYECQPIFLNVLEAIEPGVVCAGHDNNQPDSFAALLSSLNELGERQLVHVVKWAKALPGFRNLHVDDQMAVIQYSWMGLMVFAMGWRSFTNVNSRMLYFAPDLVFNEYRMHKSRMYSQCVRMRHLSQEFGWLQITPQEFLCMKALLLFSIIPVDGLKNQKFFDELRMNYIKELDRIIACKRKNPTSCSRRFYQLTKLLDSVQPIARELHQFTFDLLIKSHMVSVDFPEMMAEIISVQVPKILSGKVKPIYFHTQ

[3] = target: 3',5'-cyclic-AMP phosphodiesterase 4D (Homo sapiens, UniProt Q08499); assay type: functional
[4] = target: T2, Alpha-1A adrenergic receptor (Homo sapiens, UniProt P35348); assay type: functional, cell-based
T2 sequence (P35348 whole entry): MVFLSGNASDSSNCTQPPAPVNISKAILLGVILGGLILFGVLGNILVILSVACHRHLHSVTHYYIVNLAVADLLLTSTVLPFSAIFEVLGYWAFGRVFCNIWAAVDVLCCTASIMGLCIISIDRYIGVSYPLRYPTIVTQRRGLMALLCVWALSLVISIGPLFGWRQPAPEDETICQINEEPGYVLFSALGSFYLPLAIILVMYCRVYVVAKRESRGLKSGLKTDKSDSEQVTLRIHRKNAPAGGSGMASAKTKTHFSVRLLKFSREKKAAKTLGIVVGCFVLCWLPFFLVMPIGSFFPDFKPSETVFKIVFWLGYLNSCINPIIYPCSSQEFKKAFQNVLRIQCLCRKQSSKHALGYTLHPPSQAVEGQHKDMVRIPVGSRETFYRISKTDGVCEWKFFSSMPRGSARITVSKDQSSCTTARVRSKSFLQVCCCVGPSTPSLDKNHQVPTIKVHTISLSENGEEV

[5] = target: T2, Alpha-1A adrenergic receptor; assay type: functional, cell-based; remark: listed apart in the source
[6] = target: 5-hydroxytryptamine receptor 2B (Homo sapiens, UniProt P41595); assay type: functional, cell-based
[7] = target: T3, Muscarinic acetylcholine receptor M2 (Homo sapiens, UniProt P08172); assay type: functional, cell-based
T3 sequence (P08172 whole entry): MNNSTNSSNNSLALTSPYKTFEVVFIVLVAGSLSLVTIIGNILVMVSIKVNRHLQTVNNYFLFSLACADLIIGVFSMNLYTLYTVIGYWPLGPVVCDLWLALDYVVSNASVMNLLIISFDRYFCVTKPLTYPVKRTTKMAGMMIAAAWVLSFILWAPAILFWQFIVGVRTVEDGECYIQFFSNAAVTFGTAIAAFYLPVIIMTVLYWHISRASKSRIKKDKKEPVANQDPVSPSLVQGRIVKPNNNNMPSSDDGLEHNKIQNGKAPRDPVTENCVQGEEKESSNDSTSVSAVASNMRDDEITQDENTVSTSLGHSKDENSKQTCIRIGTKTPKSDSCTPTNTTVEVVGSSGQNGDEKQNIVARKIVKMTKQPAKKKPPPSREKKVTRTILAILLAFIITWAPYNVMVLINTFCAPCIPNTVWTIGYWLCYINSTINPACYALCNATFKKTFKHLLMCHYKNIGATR

[8] = target: T3, Muscarinic acetylcholine receptor M2; assay type: functional, cell-based; remark: listed apart in the source
[9] = target: Sodium-dependent dopamine transporter (Homo sapiens, UniProt Q01959)
[10] = target: T4, Prostaglandin G/H synthase 1 (Rattus norvegicus, UniProt Q63921); assay type: functional
T4 sequence (Q63921 whole entry): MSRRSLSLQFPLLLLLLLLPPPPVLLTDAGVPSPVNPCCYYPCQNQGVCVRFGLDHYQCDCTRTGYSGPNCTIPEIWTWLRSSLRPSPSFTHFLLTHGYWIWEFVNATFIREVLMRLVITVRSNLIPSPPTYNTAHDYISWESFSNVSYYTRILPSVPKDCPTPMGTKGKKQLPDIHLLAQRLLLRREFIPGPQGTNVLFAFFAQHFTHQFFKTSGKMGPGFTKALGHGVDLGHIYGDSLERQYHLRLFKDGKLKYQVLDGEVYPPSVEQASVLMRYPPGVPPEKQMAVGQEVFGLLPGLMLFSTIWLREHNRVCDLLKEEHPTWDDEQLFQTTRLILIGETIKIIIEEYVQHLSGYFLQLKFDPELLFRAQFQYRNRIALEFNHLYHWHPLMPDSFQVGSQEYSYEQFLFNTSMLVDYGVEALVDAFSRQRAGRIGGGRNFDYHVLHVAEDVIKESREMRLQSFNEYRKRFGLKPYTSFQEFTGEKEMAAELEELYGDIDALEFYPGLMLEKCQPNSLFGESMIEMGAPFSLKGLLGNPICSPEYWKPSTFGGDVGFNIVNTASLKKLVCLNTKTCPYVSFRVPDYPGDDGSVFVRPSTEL
Note: assay procedure not described here.

Sequence of Vascular endothelial growth factor receptor 2 (P35968 whole entry): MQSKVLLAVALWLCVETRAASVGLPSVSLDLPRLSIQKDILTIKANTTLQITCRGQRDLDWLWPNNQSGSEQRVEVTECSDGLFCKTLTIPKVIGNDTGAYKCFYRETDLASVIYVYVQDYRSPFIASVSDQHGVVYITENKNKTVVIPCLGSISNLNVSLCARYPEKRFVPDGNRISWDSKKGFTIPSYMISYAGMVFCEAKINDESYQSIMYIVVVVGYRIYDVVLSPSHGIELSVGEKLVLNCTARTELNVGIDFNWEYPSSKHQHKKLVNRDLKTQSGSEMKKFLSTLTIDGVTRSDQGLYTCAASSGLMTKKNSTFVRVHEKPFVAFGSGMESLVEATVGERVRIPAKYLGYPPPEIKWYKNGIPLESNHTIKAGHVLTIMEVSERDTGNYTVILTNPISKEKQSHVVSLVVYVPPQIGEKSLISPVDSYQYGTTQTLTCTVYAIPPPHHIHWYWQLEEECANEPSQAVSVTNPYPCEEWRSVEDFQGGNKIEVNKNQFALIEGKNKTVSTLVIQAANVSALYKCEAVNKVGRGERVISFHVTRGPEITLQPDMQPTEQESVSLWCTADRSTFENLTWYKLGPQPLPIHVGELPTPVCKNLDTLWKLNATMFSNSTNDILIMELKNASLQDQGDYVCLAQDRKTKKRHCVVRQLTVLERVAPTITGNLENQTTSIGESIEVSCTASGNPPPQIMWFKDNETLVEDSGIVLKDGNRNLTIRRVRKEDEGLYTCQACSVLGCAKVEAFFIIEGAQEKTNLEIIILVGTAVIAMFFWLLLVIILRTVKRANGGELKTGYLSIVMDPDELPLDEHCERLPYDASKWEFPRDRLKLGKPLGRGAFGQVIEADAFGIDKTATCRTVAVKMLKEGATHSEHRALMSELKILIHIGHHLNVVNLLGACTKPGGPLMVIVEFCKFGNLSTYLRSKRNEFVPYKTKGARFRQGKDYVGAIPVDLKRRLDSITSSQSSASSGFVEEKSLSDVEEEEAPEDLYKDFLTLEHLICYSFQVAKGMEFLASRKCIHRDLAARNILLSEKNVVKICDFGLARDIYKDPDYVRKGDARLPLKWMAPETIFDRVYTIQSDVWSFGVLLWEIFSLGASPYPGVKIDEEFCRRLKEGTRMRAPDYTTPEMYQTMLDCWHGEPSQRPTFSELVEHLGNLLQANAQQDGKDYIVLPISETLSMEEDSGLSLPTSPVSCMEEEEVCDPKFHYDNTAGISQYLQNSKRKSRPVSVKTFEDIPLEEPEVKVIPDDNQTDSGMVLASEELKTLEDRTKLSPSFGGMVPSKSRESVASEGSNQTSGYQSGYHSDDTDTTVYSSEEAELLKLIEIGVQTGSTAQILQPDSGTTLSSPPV
Sequence of 3',5'-cyclic-AMP phosphodiesterase 4D (Q08499 whole entry): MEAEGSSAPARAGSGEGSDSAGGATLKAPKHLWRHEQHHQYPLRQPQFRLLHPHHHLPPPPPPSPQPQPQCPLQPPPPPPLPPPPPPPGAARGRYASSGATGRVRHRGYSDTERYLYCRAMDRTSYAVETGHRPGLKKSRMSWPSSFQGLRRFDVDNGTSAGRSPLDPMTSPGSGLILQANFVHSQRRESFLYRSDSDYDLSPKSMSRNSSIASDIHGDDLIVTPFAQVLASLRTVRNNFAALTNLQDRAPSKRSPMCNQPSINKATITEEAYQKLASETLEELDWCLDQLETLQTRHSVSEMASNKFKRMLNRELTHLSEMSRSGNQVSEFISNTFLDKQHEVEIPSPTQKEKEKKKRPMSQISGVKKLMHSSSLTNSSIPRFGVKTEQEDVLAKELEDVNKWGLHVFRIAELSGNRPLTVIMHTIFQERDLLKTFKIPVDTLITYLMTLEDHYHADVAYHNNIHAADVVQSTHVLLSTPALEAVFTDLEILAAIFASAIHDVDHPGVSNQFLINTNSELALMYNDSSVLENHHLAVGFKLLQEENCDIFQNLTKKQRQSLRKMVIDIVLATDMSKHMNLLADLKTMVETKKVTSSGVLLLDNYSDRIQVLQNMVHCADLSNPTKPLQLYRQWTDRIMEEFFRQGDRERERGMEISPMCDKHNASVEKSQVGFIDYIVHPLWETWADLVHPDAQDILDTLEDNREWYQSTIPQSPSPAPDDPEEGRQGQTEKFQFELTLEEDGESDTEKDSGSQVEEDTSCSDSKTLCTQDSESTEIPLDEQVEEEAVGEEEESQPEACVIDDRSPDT
Sequence of 5-hydroxytryptamine receptor 2B (P41595 whole entry): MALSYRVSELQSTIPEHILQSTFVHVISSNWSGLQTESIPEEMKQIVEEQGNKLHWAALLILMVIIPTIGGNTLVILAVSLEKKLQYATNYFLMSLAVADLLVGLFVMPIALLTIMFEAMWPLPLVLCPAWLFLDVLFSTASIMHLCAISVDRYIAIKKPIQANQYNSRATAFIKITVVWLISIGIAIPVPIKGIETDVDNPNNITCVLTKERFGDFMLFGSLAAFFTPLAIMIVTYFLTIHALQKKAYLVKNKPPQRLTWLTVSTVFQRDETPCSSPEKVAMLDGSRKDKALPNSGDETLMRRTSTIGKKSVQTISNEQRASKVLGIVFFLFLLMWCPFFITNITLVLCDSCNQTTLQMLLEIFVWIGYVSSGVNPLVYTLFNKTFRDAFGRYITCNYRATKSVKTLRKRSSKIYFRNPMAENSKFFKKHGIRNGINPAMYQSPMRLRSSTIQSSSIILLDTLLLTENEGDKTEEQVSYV
Sequence of Sodium-dependent dopamine transporter (Q01959 whole entry): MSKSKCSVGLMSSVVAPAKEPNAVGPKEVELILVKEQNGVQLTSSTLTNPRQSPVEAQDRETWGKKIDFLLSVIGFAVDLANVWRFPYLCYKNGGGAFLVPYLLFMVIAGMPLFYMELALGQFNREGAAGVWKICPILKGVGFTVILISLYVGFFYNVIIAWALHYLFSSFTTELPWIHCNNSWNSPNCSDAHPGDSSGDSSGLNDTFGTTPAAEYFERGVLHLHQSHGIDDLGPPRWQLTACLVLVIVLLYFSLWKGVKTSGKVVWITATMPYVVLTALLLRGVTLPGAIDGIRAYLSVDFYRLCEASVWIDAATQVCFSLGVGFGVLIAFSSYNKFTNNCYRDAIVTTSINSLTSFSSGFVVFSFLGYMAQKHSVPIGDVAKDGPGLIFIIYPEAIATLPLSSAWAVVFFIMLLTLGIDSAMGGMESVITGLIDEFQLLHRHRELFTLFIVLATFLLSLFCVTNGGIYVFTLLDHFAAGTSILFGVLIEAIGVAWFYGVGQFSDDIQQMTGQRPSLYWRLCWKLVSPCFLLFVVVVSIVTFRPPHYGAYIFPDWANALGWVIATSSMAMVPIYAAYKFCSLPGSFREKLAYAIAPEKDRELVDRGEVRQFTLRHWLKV

Row | SMILES | AC50 [1] [µM] | AC50 [2] [µM] | further results
1 | CCC(Cc1c(I)cc(I)c(N)c1I)C(=O)O (stereo not given) [IOPANOIC ACID] | > 30 |  | 
2 | O=C(NC1CCN(CCCCC2(C(=O)NCC(F)(F)F)c3ccccc3-c3ccccc32)CC1)c1ccccc1-c1ccc(C(F)(F)F)cc1 [LOMITAPIDE] | > 30 | > 30 | 
3 | CCN(CC)CCNc1ccc(C)c2sc3ccccc3c(=O)c12 [LUCANTHONE] | > 30 | > 30 | 
4 | CCOC(=O)CC(SP(=S)(OC)OC)C(=O)OCC (stereo not given) [MALATHION] |  | > 30 | 
5 | CN1C(=O)N(C)C2C1N(C)C(=O)N2C (stereo not given) [MEBICAR] |  | > 30 | AC50 [3]: > 30 µM; AC50 [4]: > 30 µM; AC50 [5]: > 30 µM; AC50 [6]: > 30 µM; AC50 [7]: > 30 µM; AC50 [8]: > 30 µM
6 | CCC1(c2cccc(O)c2)CCCCN(C)C1 (stereo not given) [MEPTAZINOL] | > 30 |  | 
7 | CC(=O)OC(C)C[N+](C)(C)C (stereo not given) [METHACHOLINE] | > 30 |  | 
8 | C1N2CN3CN1CN(C2)C3 [METHENAMINE] | > 30 | > 30 | 
9 | O=[N+]([O-])c1cncn1CCN1CCOCC1 [NIMORAZOLE] |  | > 30 | 
10 | NC(=O)c1cccc2cn(-c3ccc([C@@H]4CCCNC4)cc3)nc12 [NIRAPARIB] |  | > 30 | 
11 | COc1ccc2c(c1)OC(C)(C)C(c1ccccc1)C2c1ccc(OCCN2CCCC2)cc1 (stereo not given) [ORMELOXIFENE] | > 30 |  | 
12 | Oc1cccc2cccnc12 [OXYQUINOLINE] | > 30 |  | 
13 | Nc1nc2c(ncn2CCC(CO)CO)c(=O)[nH]1 [PENCICLOVIR] | > 30 |  | 
14 | CC[C@@H]1/C=C(\C)C[C@H](C)C[C@H](OC)[C@H]2O[C@@](O)(C(=O)C(=O)N3CCCC[C@H]3C(=O)O[C@H](/C(C)=C/[C@@H]3CC[C@H](Cl)[C@H](OC)C3)[C@H](C)[C@@H](O)CC1=O)[C@H](C)C[C@@H]2OC [PIMECROLIMUS] | > 30 |  | 
15 | CC(C(=O)O)c1ccc2c(c1)Cc1cccnc1O2 (stereo not given) [PRANOPROFEN] | > 30 | > 30 | 
16 | CCO[C@@H](Cc1ccc(OCCn2c(C)ccc2-c2ccc(SC)cc2)cc1)C(=O)O [SAROGLITAZAR] | > 30 | > 30 | 
17 | CN1CCC2=C(C1)c1ccccc1Cc1ccccc12 [SETIPTILINE] | > 30 | > 30 | 
18 | O=C1CCC(N2C(=O)c3ccccc3C2=O)C(=O)N1 (stereo not given) [THALIDOMIDE] | > 30 |  | AC50 [3]: > 30 µM; AC50 [9]: > 10 µM; AC50 [4]: > 30 µM; AC50 [5]: > 30 µM; AC50 [6]: > 10 µM; AC50 [7]: > 10 µM; AC50 [8]: > 10 µM; AC50 [10]: > 30 µM
19 | CCC1C(C)=NN=C(c2ccc(OC)c(OC)c2)c2cc(OC)c(OC)cc21 (stereo not given) [TOFISOPAM] | > 30 |  | 
20 | COc1cc2c(cc1OC)[C@H]1C[C@@H](OC(=O)[C@@H](N)C(C)C)[C@H](CC(C)C)CN1CC2 [VALBENAZINE] |  | > 30 | 
